pIC50: −log10 of the molar value.
These molecules were tested against full-length recombinant human NEK7 (Homo sapiens (Human), UniProt Q8TDX7) (assay: NEK7 Enzymatic Assay). Conditions: casein substrate, [33P]-ATP, 2 hours at room temperature.
Format: biochemical
Method: Casein substrate (from bovine milk, hydrolyzed and partially dephosphorylated mixture of α, β and κ caseins, obtained from Sigma Aldrich, catalogue #C4765, diluted in distilled water to a final concentration of 1 mg/mL) and full-length recombinant human NEK7 (expressed by baculovirus in Sf9 insect cells using a N-terminal GST tag, obtained from SignalChem, catalogue #N09-10G, 0.1 μg/μL) were mixed in assay buffer (20 mM HEPES pH 7.5, 10 mM MgCl2, 1 mM EGTA, 0.02% Brij35, 0.02 mg/mL BSA, 0.1 mM Na3VO4, 2 mM DTT, 1% DMSO). Compounds of interest (serial 3-fold dilution in DMSO from 10 μM to 0.5 nM) or vehicle (1% DMSO) were dispensed into the kinase reaction mixture by Acoustic technology (Echo550; nanoliter range). After incubation at room temperature for 20 minutes, the kinase reaction was initiated by addition of [^33P]-ATP (specific activity 10 μCi/μL) and the mixture was incubated at room temperature for 2 hours. The reaction was then stopped by spotting the reaction mixture on strips of phosphocellulose P81 paper. Following washing, the radioactivity of the P81 paper was measured and kinase activity data were expressed as the percent remaining kinase activity in test samples compared to vehicle reactions. IC50 values and curve fits were obtained using Prism (GraphPad Software).

Chain of full-length recombinant human NEK7 (Q8TDX7 whole entry): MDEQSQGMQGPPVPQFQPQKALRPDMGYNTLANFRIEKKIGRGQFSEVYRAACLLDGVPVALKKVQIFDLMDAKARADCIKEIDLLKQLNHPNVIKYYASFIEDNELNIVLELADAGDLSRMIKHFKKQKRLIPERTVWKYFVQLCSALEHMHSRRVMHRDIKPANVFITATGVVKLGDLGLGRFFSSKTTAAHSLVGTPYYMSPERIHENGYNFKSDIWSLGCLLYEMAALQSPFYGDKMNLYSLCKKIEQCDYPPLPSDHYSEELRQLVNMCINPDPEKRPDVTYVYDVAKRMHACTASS

| Structure (SMILES) | pIC50 |
| --- | --- |
| CCN1CCC(Oc2ccc(NC(=O)Nc3ccc(-c4cn(C5CC5)c5ncnc(N)c45)n4ccnc34)cc2C(F)(F)F)CC1 [Example I-38, 1-(5-(4-amino-7-cyclopropyl-7H-pyrrolo[2,3-d]pyrimidin-5-yl)imidazo[1,2-a]pyridin-8-yl)-3-(4-((1-ethylpiperidin-4-yl)oxy)-3-(trifluoromethyl)-phenyl)urea] | > 6.70 |
| CC(C)(O)Cn1cc(-c2ccc(NC(=O)Nc3cc(C4(C(F)(F)F)CC4)on3)c3nccn23)c2c(N)ncnc21 [Example I-86, 1-(5-(4-amino-7-(2-hydroxy-2-methylpropyl)-7H-pyrrolo-[2,3-d]pyrimidin-5-yl)-imidazo[1,2-a]pyridin-8-yl)-3-(5-(1-(trifluoromethyl)-cyclopropyl)isoxazol-3-yl)urea] | > 6.70 |
| Nc1ncnc2c1c(-c1ccc(NC(=O)Nc3cc(C4(C(F)(F)F)CC4)on3)c3nccn13)cn2C1CC(O)C1 (stereo not drawn) [Example I-87, 1-(5-(4-amino-7-(3-hydroxy-cyclobutyl)-7H-pyrrolo[2,3-d]pyrimidin-5-yl)imidazo[1,2-a]pyridin-8-yl)-3-(5-(1-(trifluoromethyl)cyclopropyl)-isoxazol-3-yl)urea] | > 6.70 |
| CN1CCN(Cc2cc(NC(=O)Nc3ccc(-c4cn(C5CC5)c5ncnc(N)c45)n4ccnc34)cc(C(F)(F)F)c2)CC1 [Example I-36, 1-(5-(4-amino-7-cyclopropyl-7H-pyrrolo[2,3-d]pyrimidin-5-yl)imidazo[1,2-a]pyridin-8-yl)-3-(3-((4-methylpiperazin-1-yl)methyl)-5-(trifluorometh-yl)phenyl)urea] | > 6.70 |
| CC1Cc2c(-c3cn(C4CC4)c4ncnc(N)c34)ccc(NC(=O)Nc3ccc(CN4CCN(C)CC4)c(C(F)(F)F)c3)c2O1 (stereo not drawn) [Example I-57, 1-(4-(4-amino-7-cyclopropyl-7H-pyrrolo[2,3-d]pyrimidin-5-yl)-2-methyl-2,3-dihydro-benzofuran-7-yl)-3-(4-((4-methylpiperazin-1-yl)methyl)-3-(trifluoromethyl)phenyl)urea] | 5.70 to 6.30 |
| Nc1ncnc2c1c(-c1ccc(NC(=O)Nc3ccc(CN4CCN(CCO)CC4)c(C(F)(F)F)c3)c3nccn13)cn2C1CC1 [Example I-39, 1-(5-(4-amino-7-cyclopropyl-7H-pyrrolo[2,3-d]pyrimidin-5-yl)imidazo[1,2-a]pyridin-8-yl)-3-(4-((4-(2-hydroxyeth-yl)piperazin-1-yl)methyl)-3-(trifluoromethyl)phenyl)urea] | > 6.70 |
| Cc1ccc(-n2nc(C(C)(C)C)cc2NC(=O)Nc2ccc(-c3cn(C4CC4)c4ncnc(N)c34)n3ccnc23)cc1 [Example I-12, 1-(5-(4-amino-7-cyclopropyl-7H-pyrrolo[2,3-d]pyrimidin-5-yl)imidazo[1,2-a]pyridin-8-yl)-3-(3-(tert-butyl)-1-(p-tolyl)-1H-pyrazol-5-yl)urea] | 6.30 to 6.70 |
| Nc1ncnc2c1c(-c1ccc(NC(=O)Nc3cc(C4(C(F)(F)F)CCC4)on3)c3nccn13)cn2C1CC1 [Example I-33, 1-(5-(4-amino-7-cyclopropyl-7H-pyrrolo[2,3-d]pyrimidin-5-yl)imidazo[1,2-a]pyridin-8-yl)-3-(5-(1-(trifluoromethyl)-cyclobutyl)isoxazol-3-yl)urea] | 6.30 to 6.70 |
| CN1CCC(Oc2ccc(NC(=O)Nc3ccc(-c4cn(C5CC5)c5ncnc(N)c45)c4c3OCC4)cc2C(F)(F)F)CC1 [Example I-55, 1-(4-(4-amino-7-cyclopropyl-7H-pyrrolo[2,3-d]pyrimidin-5-yl)-2,3-dihydrobenzofuran-7-yl)-3-(4-((1-methylpiperidin-4-yl)oxy)-3-(trifluorometh-yl)phenyl)urea] | 6.30 to 6.70 |
| Nc1ncnc2c1c(-c1ccc(NC(=O)Nc3cc(C4(C(F)(F)F)CC4)on3)c3nccn13)cn2C1CCNCC1 [Example I-94, 1-(5-(4-amino-7-(piperidin-4-yl)-7H-pyrrolo[2,3-d]pyr-imidin-5-yl)imidazo[1,2-a]-pyridin-8-yl)-3-(5-(1-(trifluoro-methyl)cyclopropyl)isoxazol-3-yl)urea] | > 6.70 |
| CC(C)(C)c1cc(NC(=O)Nc2ccc(-c3cn(C4CC4)c4ncnc(N)c34)n3ccnc23)no1 [Example I-27, 1-(5-(4-amino-7-cyclopropyl-7H-pyrrolo[2,3-d]pyrimidin-5-yl)imidazo[1,2-a]pyridin-8-yl)-3-(5-(tert-butyl)isoxazol-3-yl)urea] | > 6.70 |
| CN1CCC(n2cc(-c3ccc(NC(=O)Nc4ccc(CN5CCN(C)CC5)c(C(F)(F)F)c4)c4nccn34)c3c(N)ncnc32)CC1 [Example I-134, 1-(5-(4-amino-7-(1-methyl-piperidin-4-yl)-7H-pyrrolo-[2,3-d]pyrimidin-5-yl)imidazo-[1,2-a]pyridin-8-yl)-3-(4-((4-methylpiperazin-1-yl)methyl)-3-(trifluoromethyl)phenyl)urea] | 6.30 to 6.70 |

Second part, the molecule after the results:

| pIC50 | Structure (SMILES) |
| --- | --- |
| > 6.70 | CN1CCC(Oc2ccc(NC(=O)Nc3ccc(-c4cn(C5CC5)c5ncnc(N)c45)c4ccncc34)cc2C(F)(F)F)CC1 [Example I-10, 1-(5-(4-amino-7-cyclopropyl-7H-pyrrolo[2,3-d]pyrimidin-5-yl)isoquinolin-8-yl)-3-(4-((1-methylpiperidin-4-yl)oxy)-3-(trifluoromethyl)phenyl)urea] |
| 6.30 to 6.70 | CC(C)c1cc(NC(=O)Nc2ccc(-c3cn(C4CC4)c4ncnc(N)c34)n3ccnc23)no1 [Example I-26, 1-(5-(4-amino-7-cyclopropyl-7H-pyrrolo[2,3-d]pyrimidin-5-yl)imidazo[1,2-a]pyridin-8-yl)-3-(5-isopropylisoxazol-3-yl)urea] |
| < 5.70 | Cc1cc(NC(=O)Nc2ccc(-c3cn(C4CC4)c4ncnc(N)c34)n3ccnc23)no1 [Example I-24, 1-(5-(4-amino-7-cyclopropyl-7H-pyrrolo[2,3-d]pyrimidin-5-yl)imidazo[1,2-a]pyridin-8-yl)-3-(5-methylisoxazol-3-yl)urea] |
| > 6.70 | Nc1ncnc2c1c(-c1ccc(NC(=O)Nc3cc(C4(C(F)(F)F)CC4)on3)c3nccn13)cn2-c1cccnc1 [Example I-91, 1-(5-(4-amino-7-(pyridin-3-yl)-7H-pyrrolo[2,3-d]pyrimidin-5-yl)imidazo[1,2-a]pyridin-8-yl)-3-(5-(1-(trifluoromethyl)-cyclopropyl)isoxazol-3-yl)urea] |
| > 6.70 | CC(C)(c1cc(NC(=O)Nc2ccc(-c3cn(C4CC4)c4ncnc(N)c34)n3ccnc23)no1)C(F)(F)F [Example I-31, 1-(5-(4-amino-7-cyclopropyl-7H-pyrrolo[2,3-d]pyrimidin-5-yl)imidazo[1,2-a]pyridin-8-yl)-3-(5-(1,1,1-trifluoro-2-methylpropan-2-yl)isoxazol-3-yl)urea] |
| < 5.70 | Nc1ncnc2c1c(-c1cnc(NC(=O)Nc3cc(C4(C(F)(F)F)CC4)on3)c3nccn13)cn2C1CC1 [Example I-50, 1-(5-(4-amino-7-cyclopropyl-7H-pyrrolo[2,3-d]pyrimidin-5-yl)imidazo[1,2-a]pyrazin-8-yl)-3-(5-(1-(trifluoromethyl)-cyclopropyl)isoxazol-3-yl)urea] |
| > 6.70 | CN1CCN(Cc2ccc(NC(=O)Nc3ccc(-c4cn(C5CC(O)C5)c5ncnc(N)c45)n4ccnc34)cc2C(F)(F)F)CC1 (stereo not drawn) [Example I-132, 1-(5-(4-amino-7-(3-hydroxy-cyclobutyl)-7H-pyrrolo[2,3-d]pyrimidin-5-yl)imidazo[1,2-a]pyridin-8-yl)-3-(4-((4-meth-ylpiperazin-1-yl)methyl)-3-(trifluoromethyl)phenyl)urea] |
| > 6.70 | Nc1ncnc2c1c(-c1ccc(NC(=O)Nc3cc(C4(C(F)(F)F)CC4)on3)c3nccn13)cn2C1CCC1 [Example I-84, 1-(5-(4-amino-7-cyclobutyl-7H-pyrrolo[2,3-d]pyrimidin-5-yl)imidazo[1,2-a]pyridin-8-yl)-3-(5-(1-(trifluoromethyl)-cyclopropyl)isoxazol-3-yl)urea] |
| > 6.70 | CC(C)(C)c1cc(NC(=O)Nc2ccc(-c3cn(C4CC4)c4ncnc(N)c34)c3ccncc23)on1 [Example I-5, 1-(5-(4-amino-7-cyclopropyl-7H-pyrrolo[2,3-d]pyrimidin-5-yl)isoquinolin-8-yl)-3-(3-(tert-butyl)isoxazol-5-yl)urea] |
| > 6.70 | CC(C)n1cc(-c2ccc(NC(=O)Nc3ccc(CN4CCN(C)CC4)c(C(F)(F)F)c3)c3nccn23)c2c(N)ncnc21 [Example I-128, 1-(5-(4-amino-7-isopropyl-7H-pyrrolo[2,3-d]pyrimidin-5-yl)imidazo[1,2-a]pyridin-8-yl)-3-(4-((4-methylpiperazin-1-yl)methyl)-3-(trifluorometh-yl)phenyl)urea] |
| 5.70 to 6.30 | CN1CCC(Oc2ccc(NC(=O)Nc3ccc(-c4cn(C5CC5)c5ncnc(N)c45)c4ccoc34)cc2C(F)(F)F)CC1 [Example I-67, 1-(4-(4-amino-7-cyclopropyl-7H-pyrrolo[2,3-d]pyrimidin-5-yl)benzofuran-7-yl)-3-(4-((1-methylpiperidin-4-yl)oxy)-3-(trifluoromethyl)phenyl)urea] |
| > 6.70 | CC(C)(F)c1cc(NC(=O)Nc2ccc(-c3cn(C4CC4)c4ncnc(N)c34)n3ccnc23)on1 [Example I-20, 1-(5-(4-amino-7-cyclopropyl-7H-pyrrolo[2,3-d]pyrimidin-5-yl)imidazo[1,2-a]pyridin-8-yl)-3-(3-(2-fluoropropan-2-yl)isoxazol-5-yl)urea] |

Source: patent US20240158394A1, “NEK7 INHIBITORS” (Halia Therapeutics, Inc., priority 2022, published 2024)
